# Reference: ChEMBL document CHEMBL1201862, “PubChem BioAssay data set” (2004)
#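 The compound was tested at five concentrations on cells cultured in 96-well plates, with a 48-hour exposure period. GI50 is the concentration that inhibits growth by half.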 Calls of active or inactive are those of the source. Rule as the data show it: active = GI50 up to about 1.1 µM and inactive = higher.
# How the values were obtained:
# Assay in all cases: growth of human tumour cells (NCI), 48 h
# [1] = tested on: K562
# [2] = tested on: UACC-257
# [3] = tested on: U-251
# [4] = tested on: SF-295
# [5] = tested on: EKVX
# [6] = tested on: HT-29
# [7] = tested on: SF-268
# [8] = tested on: SN12C
# [9] = tested on: RXF 393
# [10] = tested on: OVCAR-8
# [11] = tested on: NCI-H522
# [12] = tested on: NCI-H460
# [13] = tested on: SK-OV-3
# [14] = tested on: SF-539
# [15] = tested on: 786-0
# [16] = tested on: NCI-H23
# [17] = tested on: LOX IMVI
# [18] = tested on: Malme-3M
SMILES,GI50 [1],GI50 [2],GI50 [3],GI50 [4],GI50 [5],GI50 [6],GI50 [7],GI50 [8],GI50 [9],GI50 [10],GI50 [11],GI50 [12],GI50 [13],GI50 [14],GI50 [15],GI50 [16],GI50 [17],GI50 [18]
CCN(CC)/[N+]([O-])=N/OCC(C)O (stereo unspecified),> 100 µM (inactive),> 100 µM (inactive),> 100 µM (inactive),> 100 µM (inactive),> 100 µM (inactive),> 100 µM (inactive),> 100 µM (inactive),> 100 µM (inactive),> 100 µM (inactive),> 100 µM (inactive),> 100 µM (inactive),> 100 µM (inactive),> 100 µM (inactive),> 100 µM (inactive),> 100 µM (inactive),> 100 µM (inactive),> 100 µM (inactive),–
C=CC/N=C1/N=C(CC(=O)OCC)CS1,> 100 µM (inactive),> 100 µM (inactive),> 100 µM (inactive),> 100 µM (inactive),> 100 µM (inactive),> 100 µM (inactive),> 100 µM (inactive),> 100 µM (inactive),> 100 µM (inactive),> 100 µM (inactive),> 100 µM (inactive),> 100 µM (inactive),> 100 µM (inactive),> 100 µM (inactive),> 100 µM (inactive),> 100 µM (inactive),> 100 µM (inactive),> 100 µM (inactive)
O=C(N/C(=C\c1cc(Cl)ccc1Cl)c1nc2ccccc2[nH]1)c1ccccc1,24.4 µM (inactive),–,29.7 µM (inactive),24.5 µM (inactive),28.5 µM (inactive),16.3 µM (inactive),36.1 µM (inactive),32.1 µM (inactive),21.3 µM (inactive),19.2 µM (inactive),29.1 µM (inactive),–,> 100 µM (inactive),39.3 µM (inactive),18 µM (inactive),23.8 µM (inactive),–,19.7 µM (inactive)
CC(/C=C/c1ccccc1)=N\N=C(C)\C=C\c1ccccc1,> 100 µM (inactive),> 100 µM (inactive),> 100 µM (inactive),> 100 µM (inactive),> 100 µM (inactive),> 100 µM (inactive),> 100 µM (inactive),> 100 µM (inactive),–,> 100 µM (inactive),> 100 µM (inactive),> 100 µM (inactive),> 100 µM (inactive),–,> 100 µM (inactive),> 100 µM (inactive),> 100 µM (inactive),> 100 µM (inactive)
Cc1c(Cl)cccc1NC(=O)C(=O)C(C(=O)c1ccccc1-c1ccccc1)C1OC(=O)c2ccccc21 (stereo unspecified),27.9 µM (inactive),13.5 µM (inactive),13.5 µM (inactive),19.1 µM (inactive),26.8 µM (inactive),33.1 µM (inactive),19.7 µM (inactive),–,12.6 µM (inactive),25.5 µM (inactive),12.5 µM (inactive),25.5 µM (inactive),43 µM (inactive),14.7 µM (inactive),16.6 µM (inactive),14.5 µM (inactive),18.3 µM (inactive),12.7 µM (inactive)
CC1CCC[P+](Cc2ccccc2)(c2ccccc2)CC1 (stereo unspecified),31.3 µM (inactive),–,77.4 µM (inactive),–,> 100 µM (inactive),–,89.1 µM (inactive),> 100 µM (inactive),23.1 µM (inactive),59.8 µM (inactive),–,79.6 µM (inactive),> 100 µM (inactive),69.5 µM (inactive),> 100 µM (inactive),27.2 µM (inactive),32 µM (inactive),4.99 µM (inactive)
[C-]#[N+]C(C)(C)C[C@H]1CC(C)C2CCC(C)C3([N+]#[C-])CCC(=C)C1[C@H]23 (stereo partly specified),0.327 µM (active),0.959 µM (active),1.51 µM (inactive),0.887 µM (active),6.55 µM (inactive),0.413 µM (active),0.308 µM (active),0.195 µM (active),0.294 µM (active),0.227 µM (active),1.95 µM (inactive),–,3.69 µM (inactive),3.37 µM (inactive),2.34 µM (inactive),0.509 µM (active),0.147 µM (active),5.86 µM (inactive)
Cc1cc(N(CCC#N)CCC#N)ccc1/C=C1N=C(/C=C\c2ccccc2)N(c2ccc(C(=O)O)cc2)C\1=O,> 100 µM (inactive),> 100 µM (inactive),> 100 µM (inactive),> 100 µM (inactive),–,> 100 µM (inactive),> 100 µM (inactive),> 100 µM (inactive),–,> 100 µM (inactive),> 100 µM (inactive),> 100 µM (inactive),> 100 µM (inactive),> 100 µM (inactive),> 100 µM (inactive),> 100 µM (inactive),> 100 µM (inactive),> 100 µM (inactive)
COP(=O)(CC(=O)C1OC(C)(C)OC1C(O)COCc1ccccc1)OC (stereo unspecified),> 100 µM (inactive),> 100 µM (inactive),> 100 µM (inactive),> 100 µM (inactive),> 100 µM (inactive),> 100 µM (inactive),> 100 µM (inactive),> 100 µM (inactive),> 100 µM (inactive),> 100 µM (inactive),–,> 100 µM (inactive),–,> 100 µM (inactive),> 100 µM (inactive),> 100 µM (inactive),> 100 µM (inactive),> 100 µM (inactive)
CCOCN1COCN(C)C1=O,> 100 µM (inactive),> 100 µM (inactive),> 100 µM (inactive),> 100 µM (inactive),> 100 µM (inactive),> 100 µM (inactive),> 100 µM (inactive),> 100 µM (inactive),–,> 100 µM (inactive),–,> 100 µM (inactive),> 100 µM (inactive),> 100 µM (inactive),> 100 µM (inactive),> 100 µM (inactive),> 100 µM (inactive),> 100 µM (inactive)
Cn1c(=O)nc2n(-c3cc(Cl)ccc3Cl)c3ccccc3nc-2c1=O,6.4 µM (inactive),2.18 µM (inactive),6.4 µM (inactive),7.62 µM (inactive),3.88 µM (inactive),1.54 µM (inactive),11.9 µM (inactive),4.48 µM (inactive),14.8 µM (inactive),3.34 µM (inactive),5.31 µM (inactive),2.53 µM (inactive),28 µM (inactive),5.92 µM (inactive),8.45 µM (inactive),0.299 µM (active),–,3.78 µM (inactive)
NNC(=O)N/N=C1\C(=O)N(c2nccs2)C(=O)C(=O)C1c1nc2ccccc2s1 (stereo unspecified),–,> 100 µM (inactive),> 100 µM (inactive),> 100 µM (inactive),> 100 µM (inactive),> 100 µM (inactive),> 100 µM (inactive),> 100 µM (inactive),> 100 µM (inactive),> 100 µM (inactive),–,> 100 µM (inactive),> 100 µM (inactive),> 100 µM (inactive),> 100 µM (inactive),> 100 µM (inactive),> 100 µM (inactive),> 100 µM (inactive)
C[C@@]12CCCc3coc(c31)C(=O)c1cc3c(cc12)C(=O)C=CC3=O [XESTOQUINONE],3.61 µM (inactive),16.2 µM (inactive),31.3 µM (inactive),–,18.8 µM (inactive),22.3 µM (inactive),–,20.3 µM (inactive),14.9 µM (inactive),15.5 µM (inactive),7.06 µM (inactive),21.8 µM (inactive),–,15.7 µM (inactive),17 µM (inactive),16 µM (inactive),15.8 µM (inactive),–
CCOC(=O)c1nc2ccc(Cl)cc2c2c1Cc1ccccc1-2,> 100 µM (inactive),75.3 µM (inactive),> 100 µM (inactive),> 100 µM (inactive),> 100 µM (inactive),–,> 100 µM (inactive),> 100 µM (inactive),19.7 µM (inactive),> 100 µM (inactive),90.8 µM (inactive),–,–,> 100 µM (inactive),> 100 µM (inactive),> 100 µM (inactive),> 100 µM (inactive),–
COc1ccc(C(=O)/C(=N/Nc2ccccc2)c2ccc(OC)cc2)cc1,20.4 µM (inactive),> 100 µM (inactive),> 100 µM (inactive),> 100 µM (inactive),> 100 µM (inactive),18.3 µM (inactive),–,> 100 µM (inactive),31.9 µM (inactive),> 100 µM (inactive),80.4 µM (inactive),> 100 µM (inactive),61.2 µM (inactive),> 100 µM (inactive),> 100 µM (inactive),> 100 µM (inactive),–,> 100 µM (inactive)
Cc1ccc2c(CC(=O)O)cc(=O)oc2c1,> 100 µM (inactive),–,> 100 µM (inactive),> 100 µM (inactive),> 100 µM (inactive),> 100 µM (inactive),> 100 µM (inactive),> 100 µM (inactive),3.72 µM (inactive),> 100 µM (inactive),> 100 µM (inactive),> 100 µM (inactive),> 100 µM (inactive),> 100 µM (inactive),> 100 µM (inactive),> 100 µM (inactive),> 100 µM (inactive),> 100 µM (inactive)
CCC1C2C=CC(CC2)N1S(=O)(=O)c1ccc(C)cc1 (stereo unspecified),18.1 µM (inactive),20.9 µM (inactive),–,29.2 µM (inactive),27.8 µM (inactive),24.4 µM (inactive),20.8 µM (inactive),16.4 µM (inactive),–,> 10 µM (inactive),20.8 µM (inactive),23 µM (inactive),26.1 µM (inactive),20.7 µM (inactive),31.9 µM (inactive),–,15.8 µM (inactive),21.4 µM (inactive)
